Measured values: patent publication US20220362348A1, “LACTOFERRIN, DERIVED PEPTIDE THEREOF AND METHOD THEREOF FOR INHIBITING AND/OR ALLEVIATING LIPID SYNTHESIS” (RENORIGIN INNOVATION INSTITUTE CO., LTD., priority 2021, published 2022)

System: Human sebocytes
Assay: Neutral fat detection (Nile red staining, fluorescence intensity) in linoleic acid-induced sebocytes
Assay type: cell-based
Conditions: for concentration dependence of inhibition of LA-induced lipid content: FIGS. 1-4, lactoferrin 100-400 μg/mL, peptides 25-100 μg/mL
Procedure: Human sebocytes (Cat. No. 36079-01, Celprogen, Torrance, Calif., USA) were cultured in Dulbecco's Modified Eagle Medium (DMEM): Nutrient Mixture F-12 (DMEM/F12) purchased from Thermo Fisher Scientific Limited (Barrington, Ill., USA), 10% fetal bovine serum (FBS) purchased from Gibco, Grand Island, N.Y., USA and penicillin/streptomycin (100 IU/50 […]), incubated at 37° C. in the 5% CO2 atmosphere.
Human sebocytes were implanted in 24- or 96-well plates. After 24 hours of culture, the cells were divided into a negative control group, a positive control group and an experimental group. […] The treated human sebocytes were cultured for two days. Human sebocytes were fixed with 4% formaldehyde at room temperature. After 60 minutes of fixation, the cells were washed with PBS and stained with Nile Red solution (1 μg/ml in PBS) at 37° C. for 15 minutes. Next, the cells were washed and observed under a fluorescent microscope. Fluorescence intensity is measured with fluorometer Spectra Max i3.

[1] = FIG. 5, 0.1 mM LA + 50 μg/mL peptide
[2] = FIG. 5, 0.1 mM LA + 50 μg/mL peptide, negative control about 1.0, positive control about 2.5
[3] = FIGS. 2-4, 0.1 mM LA + 25 to 100 μg/mL peptide
[4] = FIGS. 2-4 D, 0.1 mM LA + 25 μg/mL peptide, two days, negative control about 1.0
[5] = FIGS. 2-4 D, 0.1 mM LA + 50 μg/mL peptide, two days, negative control about 1.0
[6] = FIGS. 2-4 D, 0.1 mM LA + 100 μg/mL peptide, two days, negative control about 1.0

CCCCC/C=C\C/C=C\CCCCCCCC(=O)O [LA, linoleic acid, reference compound]
lipid content induced by LA relative to negative control group (0.1 mM linoleic acid (LA) alone): more than 2 times

lactoferrin peptide 69-75: Derived peptide of lactoferrin comprising the amino acid sequence of SEQ ID NO: 02 (RDPYKLR; Lactoferrin derived peptide)
lipid content reduced compared with positive control group (LA) [1]: 40%
fluorescence intensity (lipid content, Nile red) [2]: about 1.5
concentration dependence of inhibition of LA-induced lipid content: dose-dependent manner
lipid content reduced compared with positive control group (LA) [3]: 25%
fluorescence intensity (lipid content, Nile red) [4]: about 1.5
fluorescence intensity (lipid content, Nile red) [5]: about 1.5
fluorescence intensity (lipid content, Nile red) [6]: about 1.5

lactoferrin peptide 85-91: Derived peptide of lactoferrin comprising the amino acid sequence of SEQ ID NO: 03 (KESPQTH; Lactoferrin derived peptide)
lipid content reduced compared with positive control group (LA) [1]: 40%
fluorescence intensity (lipid content, Nile red) [2]: about 1.5
concentration dependence of inhibition of LA-induced lipid content: dose-dependent manner
lipid content reduced compared with positive control group (LA) [3]: 25%
fluorescence intensity (lipid content, Nile red) [4]: about 1.5
fluorescence intensity (lipid content, Nile red) [5]: about 1.5
fluorescence intensity (lipid content, Nile red) [6]: about 1.5

lactoferrin peptide 695-701: Derived peptide of lactoferrin comprising the amino acid sequence of SEQ ID NO: 04 (KKCSTSP; Lactoferrin derived peptide)
lipid content reduced compared with positive control group (LA) [1]: 40%
fluorescence intensity (lipid content, Nile red) [2]: about 1.5
concentration dependence of inhibition of LA-induced lipid content: dose-dependent manner
lipid content reduced compared with positive control group (LA) [3]: 25%
fluorescence intensity (lipid content, Nile red) [4]: about 1.5
fluorescence intensity (lipid content, Nile red) [5]: about 1.5
fluorescence intensity (lipid content, Nile red) [6]: about 1.5
